Drawing on the supplement of paper PMC8024199, this text covers drug sensitivity score for 38 molecules.

± gives the standard deviation of the averaged measurements.

Assay in all cases: drug sensitivity score (DSS) (DSS score); higher = more sensitive (stronger growth inhibition); extreme values may be limits of the assay
For assay [1], the system named is Ba/F3 P210-BCR-ABL1 RUNX1-/- (mouse). The essentials:
(§1)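 Mouse Ba/F3 cells, either CRISPR/Cas9-edited at a target exon or edited-control clones, were screened against a 528-compound library on pre-printed 384-well plates. Each compound was tested at five concentrations across a 10,000-fold range, with 10,000 cells per well in RPMI with 10% FBS for 72 h at 37 °C and 5% CO2. CellTiter-Glo luminescence was scaled between vehicle and positive-control wells, and each dose-response was summarised as a drug sensitivity score. Scores were averaged over two replicates.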

For assay [2], the system named is Ba/F3 P210-BCR-ABL1 RUNX1-/mut (mouse). The essentials: as §1
The test system of assay [3] is Ba/F3 P210-BCR-ABL1 RUNX1wt/wt control (mouse). An outline of the steps: as §1

Regarding `CC(C)NC(=O)COc1cccc(-c2nc(Nc3ccc4[nH]ncc4c3)c3ccccc3n2)c1` [KD025], the drug sensitivity score in assay [1] turned out to be 2 ± 1.7; in assay [2] it was 2.3 ± 1.4; in assay [3], 0.

As to `O=C(NC[C@H](O)CN1CCc2ccccc2C1)c1cc(NC2COC2)ncn1`, the drug sensitivity score in assay [1] came out at 7.8 ± 1.3; in assay [2], 5.2 ± 3.5; in assay [3] it was 0.

As to `CC1(C)CC[C@]2(NC(=O)C(C)(F)F)CC[C@]3(C)[C@H](C(=O)C=C4[C@@]5(C)C=C(C#N)C(=O)C(C)(C)[C@@H]5CC[C@]43C)[C@@H]2C1` [Omaveloxolone], the drug sensitivity score in assay [1] came to 22.9 ± 0.28; in assay [2], 22.4 ± 0.78; in assay [3] it was 17.2 ± 0.14.

For `CNC(=O)c1ccccc1Nc1nc(Nc2ccc3c(c2OC)CCC[C@H](N2CCN(CCO)CC2)C3)ncc1Cl`, the drug sensitivity score amounted to 8.75 ± 0.21 in assay [1], 8.65 ± 0.21 in assay [2] and 8 ± 0.14 in assay [3].

In the case of `c1cc(CN2CCCNCCNCCCNCC2)ccc1CN1CCCNCCNCCCNCC1` [Plerixafor], the values for the drug sensitivity score in assay [1], in assay [2] and in assay [3] were 0.05 ± 0.071, 0.05 ± 0.071 and 0, respectively.

For `Nc1ncnc2c1c(COc1cccc(Cl)c1)nn2C1CCOCC1`, the drug sensitivity score was determined as 1.6 ± 1.1 in assay [1], 1.05 ± 1.1 in assay [2] and 0.05 ± 0.071 in assay [3].

Consider `COc1cc2nccc(Oc3ccc(NC(=O)Nc4cc(C)on4)c(Cl)c3)c2cc1OC` [Tivozanib], for which the figures for the drug sensitivity score in assay [1], in assay [2] and in assay [3] were 22.8 ± 0.92, 18.1 ± 0.92 and 14.45 ± 0.071, respectively.

In the case of `CC(C)N(CCCNC(=O)Nc1ccc(C(C)(C)C)cc1)C[C@H]1O[C@@H](n2cc(Br)c3c(N)ncnc32)[C@H](O)[C@@H]1O` [SGC0946], the drug sensitivity score in assay [1] is 3.45 ± 2.3; in assay [2], 3.7 ± 5.2; in assay [3], 0.

Take `CC(C)Nc1cc(-c2c[nH]c(C(=O)N[C@H](CO)c3cccc(Cl)c3)c2)c(Cl)cn1` [Ulixertinib]: the drug sensitivity score in assay [1] turned out to be 7.25 ± 0.071; in assay [2] it was 5.6 ± 0.42; in assay [3], 2.45 ± 1.6.

With `COc1cc2ncnc(Nc3ccc(F)c(Cl)c3)c2cc1NC(=O)/C=C/CN1CCCCC1` [Dacomitinib], the drug sensitivity score in assay [1] is 1.05 ± 1.5; in assay [2], 1.8 ± 2.3; in assay [3] it was 0.25 ± 0.35.

Take `Cc1cc2c(C(=O)NC[C@H](C)c3ccccc3)c(O)c(O)cc2c(O)c1-c1c(C)cc2c(C(=O)NC[C@H](C)c3ccccc3)c(O)c(O)cc2c1O` [Sabutoclax]: the drug sensitivity score in assay [1] amounted to 21.8 ± 6.7; in assay [2], 23.5 ± 7.5; in assay [3] it was 19.1 ± 0.49.

On to `CN1C(=O)N[C@H](Cc2c[nH]c3c(Cl)cccc23)C1=O` [Necrostatin 2], for which the drug sensitivity score in assay [1], in assay [2] and in assay [3] was 0 throughout.

For `CC(C)(C)c1cc(NC(=O)Nc2ccc(Oc3ccnc4[nH]c(=O)cnc34)cc2F)n(-c2ccccc2)n1`, the results for the drug sensitivity score in assay [1], in assay [2] and in assay [3] were 25.9 ± 0.78, 20.9 ± 0.49 and 17.4 ± 0.21, respectively.

With `C[C@H]1CN(C2COC2)CCN1c1ccc(Nc2cc(-c3ccnc(N4CCn5c(cc6c5CC(C)(C)C6)C4=O)c3CO)cn(C)c2=O)nc1` [GDC-0853], the drug sensitivity score in assay [1], in assay [2] and in assay [3] was 0 throughout.

`Cc1c(-c2ccc(N3CCc4cccc(C(=O)Nc5nc6ccccc6s5)c4C3)nc2C(=O)O)cnn1CC12CC3CC(CC(C3)C1)C2`: the drug sensitivity score in assay [1], in assay [2] and in assay [3] was 0 each time.

As for `CNC(=O)c1ccc(C)c(-n2c(C)cc(OCc3ccc(F)cc3F)c(Br)c2=O)c1`, the drug sensitivity score in assay [1] was determined as 0; in assay [2], 0.05 ± 0.071; in assay [3] it was 0.

Take `CNC(=O)CN1CCC(Oc2cc3c(Nc4cccc(Cl)c4F)ncnc3cc2OC)CC1` [Sapitinib]: the drug sensitivity score came out at 0.35 ± 0.49 in assay [1], 0 in assay [2] and 0 in assay [3].

Take `CN1CCN(c2ccc(C(=O)Nc3n[nH]c4ccc(Cc5cc(F)cc(F)c5)cc34)c(NC3CCOCC3)c2)CC1` [Entrectinib]: the drug sensitivity score was found to be 0.25 ± 0.35 in assay [1], 0.65 ± 0.92 in assay [2] and 0 in assay [3].

With `COc1cc(Br)c(Nc2nc(-c3c(C)nc4ncccn34)cs2)c(Br)c1` [PTC-209], the drug sensitivity score was determined as 9.05 ± 2.6 in assay [1], 7.8 ± 2.4 in assay [2] and 7.5 ± 0.14 in assay [3].

As for `CN1CCN(c2cc(C(=O)Nc3ccc4c(c3)-c3c(c(C(N)=O)nn3-c3ccc(F)cc3)CC4)c(Cl)cn2)CC1` [PHA 408], the drug sensitivity score came to 10.2 ± 1.1 in assay [1], 8.95 ± 1.1 in assay [2] and 7.4 ± 0.57 in assay [3].

Regarding `Cc1cc(C)c(CNC(=O)c2cc(-c3ccc(CN4CCOCC4)cc3)cc3c2cnn3C2CCCC2)c(=O)[nH]1` [EPZ-5687], the drug sensitivity score in assay [1] was found to be 0.5 ± 0.71; in assay [2], 0.9 ± 1.3; in assay [3], 0.

With `CC(C)[C@H](C(=O)Nc1ccc(C(=O)NO)cc1)c1ccccc1` [AR-42], the drug sensitivity score in assay [1] is 20.3 ± 0.85; in assay [2], 17.9 ± 1.1; in assay [3], 16.5 ± 0.14.

For the molecule `CC(C)(O)CC(=O)NCCn1ccc2ncnc(Nc3ccc(Oc4cccc(C(F)(F)F)c4)c(Cl)c3)c21` [TAK-285], the drug sensitivity score was 0 in assay [1], 0.5 ± 0.71 in assay [2] and 0 in assay [3].

With `Nc1cc(COc2c(Cl)cc(C[C@H](N)C(=O)O)cc2Cl)c2oc(-c3ccccc3)nc2c1` [JPH203], the drug sensitivity score in assay [1], in assay [2] and in assay [3] was 0 each time.

In the case of `CN(C)CCOc1ccc(/C(=C(/CCCl)c2ccccc2)c2ccccc2)cc1` [Toremifene], the figures for the drug sensitivity score in assay [1], in assay [2] and in assay [3] were 5.9 ± 1.7, 6.9 ± 2.7 and 4.85 ± 0.35, respectively.

Take `Cc1c(Cn2c(C)nc3c(C(=O)O)cc(N4CCOCC4)cc32)cccc1C(F)(F)F`: the drug sensitivity score in assay [1], in assay [2] and in assay [3] was 0 throughout.

For the molecule `COC(=O)c1ccc2c(c1)[nH]c1ncnc(NCCCN3CCCCC3)c12` [UM729], the drug sensitivity score stood at 4.1 ± 1.1 in assay [1], 3.5 ± 4.5 in assay [2] and 0 in assay [3].

Take `Cn1ncc(Cl)c1-c1cc(C(=O)N[C@H](CN)Cc2cccc(F)c2)sc1Cl` [Afuresertib]: the drug sensitivity score in assay [1] was found to be 1.05 ± 1.1; in assay [2] it was 1.6 ± 2.3; in assay [3], 0.

As for `C[C@H]1O[C@@H](O[C@H]2[C@@H](O)C[C@H](O[C@H]3[C@@H](O)C[C@H](O[C@H]4CC[C@@]5(C)[C@H](CC[C@@H]6[C@@H]5C[C@@H](O)[C@]5(C)[C@@H](C7=CC(=O)OC7)CC[C@]65O)C4)O[C@@H]3C)O[C@@H]2C)C[C@H](O)[C@@H]1O` [Digoxin], the values for the drug sensitivity score in assay [1], in assay [2] and in assay [3] were 0, 0.05 ± 0.071 and 0, respectively.

For `Cc1ccc(NC(=O)c2ccc(CN3CC[C@H](N(C)C)C3)c(C(F)(F)F)c2)cc1Nc1nccc(-c2cncnc2)n1` [Bafetinib], the results for the drug sensitivity score in assay [1], in assay [2] and in assay [3] were 26.55 ± 0.21, 19.9 ± 1.5 and 16.3, respectively.

As to `Nc1ncnc2c1nc(N)n2[C@@H]1O[C@H](CO)[C@@H](O)[C@H]1O` [8-amino-adenosine], the drug sensitivity score turned out to be 19.7 ± 0.42 in assay [1], 15.8 ± 2.4 in assay [2] and 9.4 ± 0.85 in assay [3].

For `Cc1[nH]nc(C(F)(F)F)c1Cc1sc2c(c1C(=O)N1C[C@](C)(O)CO1)c(=O)n(C)c(=O)n2C(C)C` [AZD3965], the drug sensitivity score was 9.05 ± 3.5 in assay [1], 6.3 ± 0.99 in assay [2] and 0 in assay [3].

With `O=c1[nH]c(=O)n([C@H]2C[C@H](O)[C@@H](CO)O2)cc1C(F)(F)F` [Trifluridine], the drug sensitivity score in assay [1] stood at 15.5 ± 0.14; in assay [2], 14.6 ± 0.85; in assay [3], 8.45 ± 0.21.

As to `NCC(=O)Nc1ccc(-n2nc(C(F)(F)F)cc2-c2ccc3c(ccc4ccccc43)c2)cc1`, the values for the drug sensitivity score in assay [1], in assay [2] and in assay [3] were 0.6 ± 0.85, 0 and 0, respectively.

As for `COc1ccc(-c2nc(N3CCOCC3)c3sc(CN(C)c4ncc(C(=O)NO)cn4)cc3n2)cn1` [CUDC-907], the drug sensitivity score in assay [1] amounted to 40.9 ± 0.85; in assay [2], 43.65 ± 0.35; in assay [3] it was 39 ± 0.57.

As to `COc1ccccc1S(=O)(=O)Nc1ccc2c(c1)CN(C)C(=O)N2` [PFI-1], the values for the drug sensitivity score in assay [1], in assay [2] and in assay [3] were 16 ± 2.8, 15.9 ± 3.9 and 9.35 ± 0.071, respectively.

In the case of `Cn1cncc1[C@@](N)(c1ccc(Cl)cc1)c1ccc2c(c1)c(-c1cccc(Cl)c1)cc(=O)n2C` [Tipifarnib], the drug sensitivity score in assay [1] is 22.4 ± 2.8; in assay [2], 18.5 ± 2.3; in assay [3] it was 4.55 ± 0.071.

As for `CCOC(=O)C1=CCCC[C@H]1S(=O)(=O)Nc1ccc(F)cc1Cl` [Resatorvid], the drug sensitivity score in assay [1], in assay [2] and in assay [3] was 0 throughout.
